Test results from patent publication US8623893B2, “Pyridino-pyridinone derivatives, preparation and therapeutic use thereof” (SANOFI, priority 2009, dated 2014).
Counter-ions that a name gives are not always drawn.

What was measured:
[1] = target: T1, fusion protein Tel/PDGF-R beta (PDGF beta receptor) in BaF/3 cells (Homo sapiens, UniProt P09619); test: Inhibition of proliferation of BaF3 Tel/PDGF cells (tyrosine kinase activity of PDGF-R beta), CellTiter-Glo, 72 h; format: cell-based, murine; conditions: 72 h incubation, cellular ATP, read-out: IC50 (concentration that inhibits 50% of the proliferation of Baf3 tel/PDGF cells)
T1 construct: the transmembrane and intracellular part of the PDGF-R beta receptor; expressed in transfected cells; host or cells: murine haematopoietic cell line BaF/3; the other entry of the earlier key: ETV6 (P41212, Transcription factor ETV6)
T1 sequence (P09619 with tags, fused parts or gaps): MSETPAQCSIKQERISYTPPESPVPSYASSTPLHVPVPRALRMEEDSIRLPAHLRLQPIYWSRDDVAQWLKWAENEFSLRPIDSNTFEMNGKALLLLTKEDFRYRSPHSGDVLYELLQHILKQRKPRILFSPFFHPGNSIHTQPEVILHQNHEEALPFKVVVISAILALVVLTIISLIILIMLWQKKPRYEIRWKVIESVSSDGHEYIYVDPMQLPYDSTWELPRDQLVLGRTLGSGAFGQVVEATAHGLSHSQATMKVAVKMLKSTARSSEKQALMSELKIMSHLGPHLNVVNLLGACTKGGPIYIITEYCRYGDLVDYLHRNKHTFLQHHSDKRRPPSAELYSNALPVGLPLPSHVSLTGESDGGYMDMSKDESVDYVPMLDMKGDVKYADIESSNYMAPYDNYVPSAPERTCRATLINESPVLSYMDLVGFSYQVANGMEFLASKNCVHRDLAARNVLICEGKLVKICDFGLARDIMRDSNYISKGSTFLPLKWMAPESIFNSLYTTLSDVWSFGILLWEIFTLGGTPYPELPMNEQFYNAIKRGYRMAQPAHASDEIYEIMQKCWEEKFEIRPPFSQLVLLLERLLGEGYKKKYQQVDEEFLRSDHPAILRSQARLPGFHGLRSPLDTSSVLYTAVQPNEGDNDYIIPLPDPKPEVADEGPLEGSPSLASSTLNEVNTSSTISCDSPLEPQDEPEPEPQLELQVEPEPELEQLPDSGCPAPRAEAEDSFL
From the text: The inhibitory activity with respect to PDGF or Flt-3 receptors is given by the concentration that inhibits 50% of the proliferation activity of cells Baf3 tel/PDGF or MV4-11, respectively.
Measurement of Inhibition of the Tyrosine Kinase Activity of the Receptor to PDGF Beta (PDGF-Rβ) (Baf-3 tel/PDGFRβ):
This test consists of evaluating the effects of the compounds on the tyrosine kinase activity of the PDGF beta receptor.
The inhibitory effect of the compounds according to the invention on the tyrosine kinase activity of the PDGF-R receptor was evaluated on the murine haematopoietic cell line BaF/3 transfected with a plasmid coding for the fusion protein Tel/PDGF-R beta. This fusion protein is found in chronic myeloid myelomonocytic leukaemias (CMML). It comprises the N-terminal part of the transcription factor Tel and the transmembrane and intracellular part of the PDGF-R beta receptor. This fusion protein is present in dimerized form (presence of an oligomerization domain in the N-terminal part of Tel) and accordingly leads to the constitutive activity of the kinase domain of PDGF-R beta.
The BaF3 Tel/PDGF cells are washed with phosphate buffer and seeded in 96-well plates, at a density of 5.10^4 cells/ml ([…]), in RPMI 1640 containing 10% of FCS, in the presence or absence of the test compounds. After incubation for 72 h, the viable cells are quantified by measurement of cellular ATP using the CellTiter-Glo® kit (Promega, Cat G7571). The cells are treated according to the instructions given by the supplier of the kit and the luminescence is measured with a Luminoskan (Ascent, Labsystem) with the following parameters: measurement: single; integration time: 1000 ms, lag time: 5 s.
It thus appears that the compounds according to the invention have an inhibitory activity on the tyrosine kinase activity of PDGF-R beta. This activity is given by the concentration that inhibits 50% of the proliferation of Baf3 tel/PDGF cells (IC50).

| melting point [°C] | IC50 [1] [nM] | Compound |
| --- | --- | --- |
| 200 | – | CCn1c(N)c(-c2ncc[nH]2)c(=O)c2ccc(-c3ccc(CC(=O)Nc4ccccn4)cn3)nc21 (as salt: HCl) [Compound 2, 2-{6-[7-Amino-8-ethyl-6-(1H-imidazol-2-yl)-5-oxo-5,8-dihydro-[1,8]naphthyridin-2-yl]-pyridin-3-yl}-N-pyridin-2-yl-acetamide] |
| 210 | – | CCn1c(N)c(-c2ncc[nH]2)c(=O)c2ccc(-c3ccc(CC(=O)NCC4COCCN4C4CC4)cc3)nc21 (centres unmarked) (as salt: HCl) [Compound 3, 2-{4-[7-Amino-8-ethyl-6-(1H-imidazol-2-yl)-5-oxo-5,8-dihydro-[1,8]naphthyridin-2-yl]-phenyl}-N-(4-cyclopropyl-morpholin-3-ylmethyl)-acetamide] |
| 118 | – | Nc1c(-c2ncc[nH]2)c(=O)c2ccc(-c3ccc(CC(=O)NCc4ccncc4)cc3)nc2n1CC1CC1 (as salt: TFA) [Compound 51, 2-{4-[7-Amino-8-cyclopropylmethyl-6-(1H-imidazol-2-yl)-5-oxo-5,8-dihydro-[1,8]naphthyridin-2-yl]-phenyl}-N-pyridin-4-ylmethyl-acetamide] |
| 120 | – | CCn1c(N)c(-c2ncc[nH]2)c(=O)c2ccc(-c3ccc(CC(=O)NCc4ccncc4)nc3)nc21 (as salt: TFA) [Compound 53, 2-{5-[7-Amino-8-ethyl-6-(1H-imidazol-2-yl)-5-oxo-5,8-dihydro-[1,8]naphthyridin-2-yl]-pyridin-2-yl}-N-pyridin-4-ylmethyl-acetamide] |
| – | 7.9 | CCn1c(N)c(-c2ncc[nH]2)c(=O)c2ccc(-c3ccc(CC(=O)Nc4ccccn4)cn3)nc21 [Compound 2, 2-{6-[7-Amino-8-ethyl-6-(1H-imidazol-2-yl)-5-oxo-5,8-dihydro-[1,8]naphthyridin-2-yl]-pyridin-3-yl}-N-pyridin-2-yl-acetamide] |
| – | 9.8 | CCN1CCCC1CNC(=O)Cc1ccc(-c2ccc3c(=O)c(-c4ncc[nH]4)c(N)n(CC)c3n2)c(C)c1 (centres unmarked) [Compound 9, 2-{4-[7-Amino-8-ethyl-6-(1H-imidazol-2-yl)-5-oxo-5,8-dihydro-[1,8]naphthyridin-2-yl]-3-methyl-phenyl}-N-(1-ethyl-pyrrolidin-2-ylmethyl)-acetamide] |
| – | 2.5 | CCn1c(N)c(-c2ncc[nH]2)c(=O)c2ccc(-c3ccc(CC(=O)Nc4ccc(C)nc4)cc3)nc21 [Compound 10, 2-{4-[7-Amino-8-ethyl-6-(1H-imidazol-2-yl)-5-oxo-5,8-dihydro-[1,8]naphthyridin-2-yl]-phenyl}-N-(6-methyl-pyridin-3-yl)-acetamide] |
| – | 2.4 | CCn1c(N)c(-c2ncc[nH]2)c(=O)c2ccc(-c3ccc(CC(=O)Nc4nnc(C)s4)cc3)nc21 [Compound 14, 2-{4-[7-Amino-8-ethyl-6-(1H-imidazol-2-yl)-5-oxo-5,8-dihydro-[1,8]naphthyridin-2-yl]-phenyl}-N-(5-methyl-[1,3,4]thiadiazol-2-yl)-acetamide] |
| – | 8.9 | Nc1c(-c2ncc[nH]2)c(=O)c2ccc(-c3ccc(CC(=O)NCc4ccncc4)cc3)nc2n1CC1CC1 [Compound 51, 2-{4-[7-Amino-8-cyclopropylmethyl-6-(1H-imidazol-2-yl)-5-oxo-5,8-dihydro-[1,8]naphthyridin-2-yl]-phenyl}-N-pyridin-4-ylmethyl-acetamide] |
| – | 13.6 | Nc1c(-c2ncc[nH]2)c(=O)c2ccc(-c3ccc(CC(=O)NCc4ccncc4)cc3)nc2n1C1CCCC1 [Compound 52, 2-{4-[7-Amino-8-cyclopentyl-6-(1H-imidazol-2-yl)-5-oxo-5,8-dihydro-[1,8]naphthyridin-2-yl]-phenyl}-N-pyridin-4-ylmethyl-acetamide] |
| – | 5.9 | CCn1c(N)c(-c2ncc[nH]2)c(=O)c2ccc(-c3ccc(CC(=O)NCCCc4ccccc4)cc3)nc21 [Compound 55, 2-{4-[7-Amino-8-ethyl-6-(1H-imidazol-2-yl)-5-oxo-5,8-dihydro-[1,8]naphthyridin-2-yl]-phenyl}-N-(3-phenyl-propyl)-acetamide] |
